Source: patent US10464947B2 (Incyte Corporation, priority 2013, dated 2019)

Tested on: KMS.12.BM cells
Test: KMS.12.BM Cell Viability Assay (Example B1)
Type: cell-based, human
Conditions: Homo sapiens, 72 h, 3 days, Cell Titer-GLO, read-out: KMS cellular IC50
Procedure, shortened: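 KMS.12.BM human myeloma cells, 5000 cells/well in RPMI with 10% FBS, exposed to a compound concentration range for 3 days. Viable cells measured by ATP-based Cell Titer-GLO luminescence after 10 min at room temperature.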

Structure (SMILES) | IC50 [µM]
Cc1noc(C)c1-c1cc(F)c2nc(N3CCC(O)C3)n3c2c1OCC3c1cccnc1 (stereo not shown) [Example 157, 1-[7-(3,5-Dimethylisoxazol-4-yl)-9-fluoro-4-pyridin-3-yl-4,5-dihydroimidazo[1,5,4-de][1,4]benzoxazin-2-yl]pyrrolidin-3-ol] | < 1
CCNc1nc2c(F)cc(-c3c(C)noc3C)c3c2n1C(c1cccnc1)CO3 (stereo not shown) [Example 158, 7-(3,5-Dimethylisoxazol-4-yl)-N-ethyl-9-fluoro-4-pyridin-3-yl-4,5-dihydroimidazo[1,5,4-de][1,4]benzoxazin-2-amine] | < 1
Cc1noc(C)c1-c1ccc2nc(N3CCOCC3)n3c2c1OC[C@@H]3c1ccccn1 [Example 161, (4S)-7-(3,5-dimethylisoxazol-4-yl)-2-morpholin-4-yl-4-pyridin-2-yl-4,5-dihydroimidazo[1,5,4-de][1,4]benzoxazine] | < 1
Cc1noc(C)c1-c1ccc2nc(N3CCCC3)n3c2c1OC[C@@H]3c1ccccn1 [Example 162, (4S)-7-(3,5-dimethylisoxazol-4-yl)-4-pyridin-2-yl-2-pyrrolidin-1-yl-4,5-dihydroimidazo[1,5,4-de][1,4]benzoxazine] | < 1
Cc1noc(C)c1-c1ccc2nc(N3CCN(C)CC3)n3c2c1OC[C@@H]3c1ccccn1 [Example 163, (4S)-7-(3,5-dimethylisoxazol-4-yl)-2-(4-methylpiperazin-1-yl)-4-pyridin-2-yl-4,5-dihydroimidazo[1,5,4-de][1,4]benzoxazine] | < 1
Cc1noc(C)c1-c1ccc2nc(N3CCC3)n3c2c1OC[C@@H]3c1ccccn1 [Example 164, (4S)-2-azetidin-1-yl-7-(3,5-dimethylisoxazol-4-yl)-4-pyridin-2-yl-4,5-dihydroimidazo[1,5,4-de][1,4]benzoxazine] | < 1
Cc1noc(C)c1-c1ccc2nc(N3CC(O)C3)n3c2c1OC[C@@H]3c1ccccn1 [Example 165, 1-[(4S)-7-(3,5-dimethylisoxazol-4-yl)-4-pyridin-2-yl-4,5-dihydroimidazo[1,5,4-de][1,4]benzoxazin-2-yl]azetidin-3-ol] | < 1
Cc1noc(C)c1-c1ccc2nc(N3CCN(C)C(=O)C3)n3c2c1OC[C@@H]3c1ccccn1 [Example 166, 4-[(4S)-7-(3,5-dimethylisoxazol-4-yl)-4-pyridin-2-yl-4,5-dihydroimidazo[1,5,4-de][1,4]benzoxazin-2-yl]-1-methylpiperazin-2-one] | < 1
CCOC(=O)N1CCN(c2nc3ccc(-c4c(C)noc4C)c4c3n2[C@@H](c2ccccn2)CO4)CC1 [Example 167, ethyl 4-[(4S)-7-(3,5-dimethylisoxazol-4-yl)-4-pyridin-2-yl-4,5-dihydroimidazo[1,5,4-de][1,4]benzoxazin-2-yl]piperazine-1-carboxylate] | < 1
Cc1noc(C)c1-c1ccc2nc(N3CCC(O)CC3)n3c2c1OC[C@@H]3c1ccccn1 [Example 169, 1-[(4S)-7-(3,5-dimethylisoxazol-4-yl)-4-pyridin-2-yl-4,5-dihydroimidazo[1,5,4-de][1,4]benzoxazin-2-yl]piperidin-4-ol] | < 1
Cc1noc(C)c1-c1ccc2nc(N3CCC[C@@H](O)C3)n3c2c1OC[C@@H]3c1ccccn1 [Example 170A, (3R)-1-[(4S)-7-(3,5-dimethylisoxazol-4-yl)-4-pyridin-2-yl-4,5-dihydroimidazo[1,5,4-de][1,4]benzoxazin-2-yl]piperidin-3-ol] | < 1
Cc1noc(C)c1-c1ccc2nc(N3CCC[C@H](O)C3)n3c2c1OC[C@@H]3c1ccccn1 [Example 170B, (3S)-1-[(4S)-7-(3,5-dimethylisoxazol-4-yl)-4-pyridin-2-yl-4,5-dihydroimidazo[1,5,4-de][1,4]benzoxazin-2-yl]piperidin-3-ol] | < 1
Cc1noc(C)c1-c1ccc2nc(N3CCC(N(C)C)CC3)n3c2c1OC[C@@H]3c1ccccn1 [Example 171, 1-[(4S)-7-(3,5-dimethylisoxazol-4-yl)-4-pyridin-2-yl-4,5-dihydroimidazo[1,5,4-de][1,4]benzoxazin-2-yl]-N,N-dimethylpiperidin-4-amine] | < 1
